For one data set, the system named is LHb neurons. The data set can be described thus: LHb neuronal excitability, intrinsic properties, rebound bursting, Ih and M-currents in slices after in vivo treatment. The note with it: for effect on mTBI-induced LHb hyperexcitability (APs on depolarization): vs mTBI+vehicle P<0.0001, 2-way ANOVA. Set-up: species or system male C57BL/6 mice.
Data set [1] in a line: Time-locked brain microdialysis and blood sampling pharmacokinetics. The note with it: for Brain Dialysate: AUC / Brain Dialysate: Cmax / Brain Dialysate: Tmax: 3 mg/kg IP, striatal microdialysis 0-60 min; for Brain Dialysate: AUC: TES2300 and TES2320 co-injected, estimated concentration by probe recovery; for Brain Dialysate: AUC / Brain Dialysate: Cmax: LC-MS/MS, mean ± SEM; for Brain Dialysate: Cmax: estimated by probe recovery.
From the text: Mice (PN56-70) were anesthetized with isoflurane (1%) mixed with medical grade oxygen (0.75 L/min). Two incisions were made: a 0.5 cm incision in between the scapulae and a 1-cm ventral neck incision right of midline. The right carotid artery was isolated, ligated cranially with 4-0 silk, and temporarily occluded at the caudal end of the vessel with a micro clamp. A small incision was made into the carotid artery and PE-10 tubing, preflushed with heparin/glycerol (500 IU/ml, 50:50) and connected to a 28-gauge PinPort^TM (PNP3F28; Instech, Plymouth Meeting, PA), was advanced toward the heart. The clamp was released, the caudal ligature secured the catheter, and the catheter was tunneled subcutaneously to the scapular incision. Both incisions were closed with staples. The mouse was immediately transferred to a stereotaxic frame to implant the microdialysis probe.
A midsagittal skull incision was followed by a craniotomy (AP +0.5 mm, ML +2.0 mm from bregma). The dura was removed and a microdialysis probe (CMA12, 8309664, 4 mm membrane, 100 kDa cutoff; HBio, Holliston, MA) was inserted into the striatum (DV −5.0 mm).
Microdialysis probes were primed with artificial cerebrospinal fluid aCSF (15 mM Tris HCl, 10 mM Tris base, 126 mM NaCl, 2.5 KCl, 1.2 mM NaH2PO4, 2mM Na2SO4, and adjusted pH to 7.4) containing 0.05% bovine serum albumin (BSA) at a rate of 1 μL/minute using a two channel dual syringe pump (Fusion 101A Syringe Pump; Chemyx, Stafford, TX) for one-hour and then placed into the striatum at the coordinates listed above for 30-minutes prior to collecting baseline dialysate. Using the other pump channel, the preservation solution containing 150 ng/mL DADLE ([D-Ala2, D-Leu5]-Enkephalin; 10% acetic acid in 0.05% BSA in aCSF as an internal standard) is combined with the dialysate immediately via a micro-Tee at a flow rate of 1 μL/min (Figure 2A.). […] Dialysate was collected at −10, +10, +20, +30, +40, +50, and +60 minutes. Blood was collected at −5, +1, +5, +15, +25, +35, +45, and +55 minutes to correspond to the midpoint of the dialysate fraction. To separate plasma from whole blood, each sample was collected in ethylenediamine tetraacetic acid capillary tubes (CT-CB300-K2EDTA; Sarstedt, Nümbrecht, Germany), inverted repeatedly for 30 seconds, and centrifuged for 5 minutes at 2,500 x g in a refrigerated centrifuge (Galaxy Mini Centrifuge; VWR, Radnor, PA).
Biological sample preparation: Plasma samples (20 µL) were mixed with 20 µL of an internal standard working solution containing 150 ng/mL (DADLE) in 10% acetic acid. To precipitate proteins in both plasma and dialysate, 120 µL of ice-cold methanol was added to the plasma mixture and the dialysate samples (20 µL, premixed with preservation solution). After vortexing for 30 seconds, samples were centrifuged at 8,000 x g for 10-minutes at 4°C. The supernatant was evaporated using a Savant Speedvac concentrator. Dialysate and plasma samples were reconstituted in 20 μL of diluent (5% methanol and 0.1% formic acid in nanopure water).
Liquid chromatography and mass spectrometry: Samples were injected into the Thermo Fisher Scientific UHPLC-MS/MS TSQ system. Separation was achieved on an ACQUITY UPLC HSS T3 C18 Column (100 Å, 1.8 µm, 2.1 × 100 mm) and VanGuard pre-column (HSS T3 1.8 μm, 2.1 × 5 mm) and a HyperSep Retain PEP trap column (2.1 × 10 mm) with the column temperature set at 40 °C. We used a water-acetonitrile gradient with a flow rate of 0.2 mL/min and a total run time of 25. The mobile phases used were A: 0.1% v/v formic acid in deionized water and B: 0.1% v/v formic acid in acetonitrile, with the following conditions: 0 to 1 min (2 %B diverted to waste), 1.0 to 1.2 min (5% B), 1.2 min to 6 min (15% B), 6 min to 11 min (30% B), 11 min to 12.5 min (95% B), 12.5 min to 18 min (95% B), 18 min to 18.5 min (5 %B) 18.5 min to 23.5 min (5% B), 23.5 min to 25 min (2 %B). Injection volumes of 10 µL for dialysate and 5 µL for the plasma sample were used.

A further data set addresses T1, human PAC1 receptor (Homo sapiens, UniProt P41586).
T1 sequence (P41586 21-468): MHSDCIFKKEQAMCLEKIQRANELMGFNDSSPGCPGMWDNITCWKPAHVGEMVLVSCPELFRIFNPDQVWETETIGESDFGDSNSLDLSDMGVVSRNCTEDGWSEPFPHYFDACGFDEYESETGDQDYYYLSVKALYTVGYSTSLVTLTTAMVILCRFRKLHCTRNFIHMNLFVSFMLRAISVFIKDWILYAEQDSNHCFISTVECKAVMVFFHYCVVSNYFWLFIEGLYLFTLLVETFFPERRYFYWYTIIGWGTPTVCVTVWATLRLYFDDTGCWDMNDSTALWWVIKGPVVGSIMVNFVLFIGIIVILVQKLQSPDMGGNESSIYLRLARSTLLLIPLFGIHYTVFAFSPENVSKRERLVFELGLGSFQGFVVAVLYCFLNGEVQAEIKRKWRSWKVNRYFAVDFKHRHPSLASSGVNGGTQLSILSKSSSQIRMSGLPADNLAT
In words: biochemical. From the text:
Plasmon Waveguide Resonance (PWR) spectroscopy, an enhanced technology related to Surface Plasmon Resonance (SPR) is capable of monitoring molecular anisotropy and measuring mass and structural changes in real time along with molecular interactions with receptor in the lipid bilayer. PWR was utilized to quantify label-free ligand binding affinities. Intact cell membranes containing human PAC1 receptors (purified and isolated from CHO cells, as described below) were immobilized onto the silica surface of a PWR prism element.
The prism was integrated into a PWR spectrometer system (Mainline Scientific, Malvern, PA). […] Binding events, along with any associated conformational shifts in the receptor or lipid matrix, were directly monitored via the angular resonance shifts of parallel (p-polarized) and perpendicular (s-polarized) light.

A short description of data set [2]: PWR membrane partitioning into receptor-free egg phosphatidylcholine membranes. The data set is classed as physicochemical.
In the next data set the test system is VPAC1 receptors. The note with it: cited from earlier work.
Data set [3] has as its system male C57BL/6 mice, repetitive closed-head mTBI.
Another data set in a line: in vivo. The conditions noted are these: C57Bl/6J, mouse, ip, 3 mg/kg.
Setting [4] is: early intervention, 10 mg/kg i.p. x5.
The mark [5] stands for this setting: late intervention, single 10 mg/kg i.p.
[6] abbreviates: C57Bl/6J mice, 3 mg/kg IP each, co-injected, 0-60 min, n=4, ratio paired t-test.
The mark [7] stands for this setting: C57Bl/6J mice, co-injected, n=4, SEM.
[8] abbreviates: C57Bl/6J mice, co-injected, n=4.
The mark [9] stands for this setting: C57Bl/6J, mouse, plasma, ip, 3 mg/kg, SEM.

This is an account of results in article doi:10.64898/2025.12.05.692609v2, “Early intervention with a PACAP lactoside following repetitive mild traumatic brain injury prevents persistent LHb hyperactivity and motivational deficits in male mice” (bioRxiv, 2025).

The structures appear in SMILES notation. Where two headings read alike, the source gives them in different places. Where a SMILES comes first, the peptide text is derived from it. [ ]: non-standard residue; d: D form. The star is where a group is joined. X1 = OC[C@H]1O[C@@H](O[C@H]2[C@H](O)[C@@H](O)[C@H](*)O[C@@H]2CO)[C@H](O)[C@@H](O)[C@H]1O; Nle = CCCC[C@H](N)C(=O)O

On to `CCCC[C@H](NC(=O)[C@H](CCC(N)=O)NC(=O)[C@H](CCCCN)NC(=O)[C@H](CCCNC(=N)N)NC(=O)[C@H](Cc1ccc(O)cc1)NC(=O)[C@H](CCCNC(=N)N)NC(=O)[C@H](CO)NC(=O)[C@H](Cc1ccc(O)cc1)NC(=O)[C@H](CO)NC(=O)[C@H](CC(=O)O)NC(=O)[C@@H](NC(=O)[C@H](Cc1ccccc1)NC(=O)[C@@H](NC(=O)CNC(=O)[C@H](CC(=O)O)NC(=O)[C@H](CO)NC(=O)[C@@H](N)Cc1c[nH]cn1)[C@@H](C)CC)[C@@H](C)O)C(=O)N[C@@H](C)C(=O)N[C@H](C(=O)N[C@@H](CCCCN)C(=O)N[C@@H](CCCCN)C(=O)N[C@@H](Cc1ccc(O)cc1)C(=O)N[C@@H](CC(C)C)C(=O)N[C@@H](CO[C@@H]1O[C@H](CO)[C@@H](O[C@@H]2O[C@H](CO)[C@H](O)[C@H](O)[C@H]2O)[C@H](O)[C@H]1O)C(N)=O)C(C)C` [TES2320] (H-HSDGIFTDSYSRYRKQ[Nle]AVKKYLS(X1)-NH2; N-terminus assumed), for which the “effect on mTBI-enhanced Ih currents in LHb neurons” value in the data set with LHb neurons (setting [4]) is “insufficient to prevent this Ih enhancement”; with LHb neurons (late intervention, single 10 mg/kg i.p., vs sham+vehicle p<0.0001) it was “exaggerated this effect”. Moreover, the “effect on mTBI-reduced M-currents in LHb neurons” value in the data set with LHb neurons (setting [4]) and with LHb neurons (setting [5]) was “Neither early nor late TES2320 intervention in mTBI mice normalized this reduction” throughout. Also, the “effect on mTBI-induced LHb hyperexcitability (APs on depolarization)” value with LHb neurons (early intervention, 10 mg/kg i.p. x5, n=85 cells/13 mice) is “normalized this hyperexcitability to sham levels”; in the data set on LHb neurons (late intervention, single 10 mg/kg i.p., n=31 cells/5 mice), “normalized this hyperexcitability to sham levels”. Further, the “effect on mTBI-induced hyperpolarization-induced rebound bursting” value with LHb neurons (early intervention, 10 mg/kg i.p. x5, vs mTBI+vehicle p<0.01, 2-way ANOVA) was “normalize this mTBI-induced increase in rebound bursting”; in the data set on LHb neurons (setting [5]), “no effect”. The “fast afterhyperpolarization (fAHP) amplitude of LHb neurons” value in the data set with LHb neurons (late intervention, single 10 mg/kg i.p., vs mTBI+vehicle p<0.05, one-way ANOVA) is “significantly diminished”. The “fold increase of AUC over TES2300 in the CSF (brain dialysate)” value in data set [1] (setting [6]) is recorded as 1.43 fold. The “fold increase of AUC over TES2300 in the plasma” value in data set [1] (setting [6]) was 4.73 fold. The “Brain Dialysate: AUC” value in data set [1] (C57Bl/6J mice, n=4, SEM) is given as 1071 ± 574 ng·min/mL. The “Brain Dialysate: Cmax” value in data set [1] (setting [7]) is reported as 74 ± 22 ng/mL. Also, in data set [1] (setting [8]), the “Brain Dialysate: Tmax” value is listed as 8 min. Also, the Kd (usually the free concentration of one partner at which half of the binding sites on the other are occupied at equilibrium, for simple one-to-one binding) on human PAC1 receptor was 0.0045 nM; in data set [2] (PWR, receptor-free egg phosphatidylcholine (eggPC) control membranes, read-out: Kd, baseline membrane partitioning affinity), 1.35 nM. Moreover, the “functional potency at VPAC1 receptors” value in the data set on VPAC1 receptors is “picomolar functional potency”. Besides, the “total grooming time, sucrose splash test” value in data set [3] (early intervention, 10 mg/kg i.p. x5, n=12) was “no effect”; in data set [3] (mouse, in vivo, ip, 10 mg/kg) it was “significantly decreased the total grooming time”. For the same compound, the “latency to groom, sucrose splash test” value in data set [3] (early intervention, 10 mg/kg i.p. x5, n=12, vs mTBI+vehicle p<0.05, one-way ANOVA) is on record as “effective in preventing the prolonged grooming latency”; in data set [3] (late intervention, single 10 mg/kg i.p., n=11, vs sham or early TES2320 p<0.01), “continued to exhibit increased grooming latency”. Also, in “in vivo”, the Tmax (commonly the time at which the peak concentration occurs) was 10 min. Moreover, in the data set “in vivo” (SEM), the AUC(0-t) (in general, the area under the concentration-time curve up to a stated or last time point) is 101 ng·h/mL. Besides, in “in vivo” (SEM), the Cmax – broadly, the highest concentration seen after dosing – was determined as 313 ± 62 ng/mL. In the data set “in vivo” (SEM), the half-life (in general, how long it takes for the measured level to halve) was 13 ± 6 min.

Consider `CCCC[C@H](NC(=O)[C@H](CCC(N)=O)NC(=O)[C@H](CCCCN)NC(=O)[C@H](CCCNC(=N)N)NC(=O)[C@H](Cc1ccc(O)cc1)NC(=O)[C@H](CCCNC(=N)N)NC(=O)[C@H](CO)NC(=O)[C@H](Cc1ccc(O)cc1)NC(=O)[C@H](CO)NC(=O)[C@H](CC(=O)O)NC(=O)[C@@H](NC(=O)[C@H](Cc1ccccc1)NC(=O)[C@@H](NC(=O)CNC(=O)[C@H](CC(=O)O)NC(=O)[C@H](CO)NC(=O)[C@@H](N)Cc1c[nH]cn1)[C@@H](C)CC)[C@@H](C)O)C(=O)N[C@@H](C)C(=O)N[C@H](C(=O)N[C@@H](CCCCN)C(=O)N[C@@H](CCCCN)C(=O)N[C@@H](Cc1ccc(O)cc1)C(=O)N[C@@H](CC(C)C)C(=O)N[C@@H](CO)C(N)=O)C(C)C` [TES2300] (H-HSDGIFTDSYSRYRKQ[Nle]AVKKYLS-NH2; N-terminus assumed), for which the “Brain Dialysate: AUC” value in data set [1] (C57Bl/6J mice, n=4, SEM) was 703 ± 338 ng·min/mL. Besides, in data set [1] (setting [7]), the “Brain Dialysate: Cmax” value is reported as 64 ± 21 ng/mL. The “Brain Dialysate: Tmax” value in data set [1] (setting [8]) came to 8 min. The Kp (commonly the ratio of the level in a tissue or fluid to that in plasma or blood) in data set [1] (C57Bl/6J, mouse, brain dialysate / plasma, ip, 3 mg/kg) is 0.513. For the same compound, the Tmax in data set [1] (C57Bl/6J, mouse, plasma, ip, 3 mg/kg) was 4 min. For the same compound, in data set [1] (setting [9]), the AUC(0-t) is 22.8 ng·h/mL, the concentration peaked (Cmax) at 106 ± 25 ng/mL and the half-life came out at 8 ± 4 min. The “affinity for PC bilayers relative to TES2320” value in data set [2] (PWR, PC bilayers, unglycosylated variant vs TES2320) was “ten fold higher affinity”. Further, the Kd in data set [2] (as quoted in the pharmacokinetics section, membrane not specified, read-out: Kd, affinity for the membrane) came out at 0.114 nM.
